# Reference: the NIST ThermoML archive (doi:10.1016/j.tca.2009.02.022)
# Numbers after ± are expanded uncertainties.
# Legend:
# [1] = 303.15 K, 101.33 kPa, Liquid; for viscosity: Capillary tube (Ostwald / Ubbelohde) method; for mass density: Vibrating tube method
# [2] = xn = mol fraction of the nth substance listed; details: 303.15 K, 101 kPa, Liquid; for viscosity: Capillary tube (Ostwald / Ubbelohde) method; for mass density: Vibrating tube method
compound,measurement,setting,value
CCCCO [butan-1-ol],viscosity,[1],2.25 ± 0.015 mPa·s
same,mass density,[1],801.9 ± 0.17 kg/m3
C1CCCCC1 [cyclohexane],viscosity,[1],0.821 ± 0.006 mPa·s
same,mass density,[1],769.12 ± 0.13 kg/m3
CCOC(C)=O [ethyl acetate],viscosity,[1],0.4 ± 0.005 mPa·s
same,mass density,[1],888.5 ± 0.08 kg/m3
CCOC(C)=O [ethyl acetate] + CCCCO,viscosity,[2]; x2 = 0.1411,0.467 ± 0.005 mPa·s
same,viscosity,[2]; x2 = 0.3184,0.563 ± 0.005 mPa·s
same,viscosity,[2]; x2 = 0.3797,0.609 ± 0.006 mPa·s
same,viscosity,[2]; x2 = 0.4659,0.673 ± 0.006 mPa·s
same,viscosity,[2]; x2 = 0.5634,0.766 ± 0.006 mPa·s
same,viscosity,[2]; x2 = 0.6782,0.92 ± 0.007 mPa·s
same,viscosity,[2]; x2 = 0.7595,1.076 ± 0.008 mPa·s
same,viscosity,[2]; x2 = 0.8312,1.287 ± 0.009 mPa·s
same,viscosity,[2]; x2 = 0.9291,1.736 ± 0.012 mPa·s
same,mass density,[2]; x2 = 0.1411,875.69 ± 0.14 kg/m3
same,mass density,[2]; x2 = 0.3184,859.95 ± 0.13 kg/m3
same,mass density,[2]; x2 = 0.3797,854.67 ± 0.12 kg/m3
same,mass density,[2]; x2 = 0.4659,847.1 ± 0.12 kg/m3
same,mass density,[2]; x2 = 0.5634,838.65 ± 0.12 kg/m3
same,mass density,[2]; x2 = 0.6782,828.8 ± 0.11 kg/m3
same,mass density,[2]; x2 = 0.7595,821.86 ± 0.11 kg/m3
same,mass density,[2]; x2 = 0.8312,815.82 ± 0.11 kg/m3
same,mass density,[2]; x2 = 0.9291,807.64 ± 0.11 kg/m3
CCCCCCCCO [octan-1-ol],viscosity,[1],6.19 ± 0.039 mPa·s
same,mass density,[1],817.52 ± 0.17 kg/m3
CCCCCCCCO [octan-1-ol] + C1CCCCC1,viscosity,[2]; x1 = 0.2008,1.242 ± 0.008 mPa·s
same,viscosity,[2]; x1 = 0.3755,1.792 ± 0.011 mPa·s
same,viscosity,[2]; x1 = 0.5205,2.4 ± 0.015 mPa·s
same,viscosity,[2]; x1 = 0.6054,2.847 ± 0.017 mPa·s
same,viscosity,[2]; x1 = 0.7044,3.46 ± 0.021 mPa·s
same,viscosity,[2]; x1 = 0.7758,3.983 ± 0.025 mPa·s
same,viscosity,[2]; x1 = 0.8541,4.633 ± 0.029 mPa·s
same,viscosity,[2]; x1 = 0.901,5.089 ± 0.032 mPa·s
same,viscosity,[2]; x1 = 0.9553,5.664 ± 0.036 mPa·s
same,mass density,[2]; x1 = 0.2008,780.75 ± 0.12 kg/m3
same,mass density,[2]; x1 = 0.3755,789.9 ± 0.13 kg/m3
same,mass density,[2]; x1 = 0.5205,796.98 ± 0.13 kg/m3
same,mass density,[2]; x1 = 0.6054,800.89 ± 0.14 kg/m3
same,mass density,[2]; x1 = 0.7044,805.34 ± 0.14 kg/m3
same,mass density,[2]; x1 = 0.7758,808.38 ± 0.15 kg/m3
same,mass density,[2]; x1 = 0.8541,811.63 ± 0.15 kg/m3
same,mass density,[2]; x1 = 0.901,813.56 ± 0.16 kg/m3
same,mass density,[2]; x1 = 0.9553,815.75 ± 0.16 kg/m3
CCCCCCCCO [octan-1-ol] + CCOC(C)=O,viscosity,[2]; x1 = 0.0809,0.537 ± 0.005 mPa·s
same,viscosity,[2]; x1 = 0.162,0.68 ± 0.006 mPa·s
same,viscosity,[2]; x1 = 0.3257,1.028 ± 0.007 mPa·s
same,viscosity,[2]; x1 = 0.4413,1.314 ± 0.009 mPa·s
same,viscosity,[2]; x1 = 0.5431,1.596 ± 0.01 mPa·s
same,viscosity,[2]; x1 = 0.6637,2.04 ± 0.013 mPa·s
same,viscosity,[2]; x1 = 0.7062,2.26 ± 0.014 mPa·s
same,viscosity,[2]; x1 = 0.8574,3.545 ± 0.023 mPa·s
same,viscosity,[2]; x1 = 0.9251,4.563 ± 0.029 mPa·s
same,mass density,[2]; x1 = 0.0809,878.16 ± 0.15 kg/m3
same,mass density,[2]; x1 = 0.162,869.16 ± 0.14 kg/m3
same,mass density,[2]; x1 = 0.3257,854.09 ± 0.13 kg/m3
same,mass density,[2]; x1 = 0.4413,845.4 ± 0.12 kg/m3
same,mass density,[2]; x1 = 0.5431,838.72 ± 0.12 kg/m3
same,mass density,[2]; x1 = 0.6637,831.83 ± 0.11 kg/m3
same,mass density,[2]; x1 = 0.7062,829.6 ± 0.11 kg/m3
same,mass density,[2]; x1 = 0.8574,822.7 ± 0.11 kg/m3
same,mass density,[2]; x1 = 0.9251,820.07 ± 0.11 kg/m3
CCCCCO [pentan-1-ol],viscosity,[1],2.839 ± 0.019 mPa·s
same,mass density,[1],807.11 ± 0.17 kg/m3
CCCCCO [pentan-1-ol] + CCOC(C)=O,viscosity,[2]; x1 = 0.1095,0.474 ± 0.005 mPa·s
same,viscosity,[2]; x1 = 0.2164,0.541 ± 0.005 mPa·s
same,viscosity,[2]; x1 = 0.3291,0.626 ± 0.006 mPa·s
same,viscosity,[2]; x1 = 0.4303,0.722 ± 0.006 mPa·s
same,viscosity,[2]; x1 = 0.5202,0.829 ± 0.007 mPa·s
same,viscosity,[2]; x1 = 0.6103,0.97 ± 0.007 mPa·s
same,viscosity,[2]; x1 = 0.7187,1.211 ± 0.008 mPa·s
same,viscosity,[2]; x1 = 0.8051,1.508 ± 0.01 mPa·s
same,viscosity,[2]; x1 = 0.9009,2.017 ± 0.013 mPa·s
same,mass density,[2]; x1 = 0.1095,877.42 ± 0.14 kg/m3
same,mass density,[2]; x1 = 0.2164,867.46 ± 0.13 kg/m3
same,mass density,[2]; x1 = 0.3291,857.43 ± 0.13 kg/m3
same,mass density,[2]; x1 = 0.4303,848.83 ± 0.12 kg/m3
same,mass density,[2]; x1 = 0.5202,841.5 ± 0.12 kg/m3
same,mass density,[2]; x1 = 0.6103,834.44 ± 0.11 kg/m3
same,mass density,[2]; x1 = 0.7187,826.3 ± 0.11 kg/m3
same,mass density,[2]; x1 = 0.8051,820.09 ± 0.11 kg/m3
same,mass density,[2]; x1 = 0.9009,813.46 ± 0.11 kg/m3
